Results reported in patent publication US20260283988A1, “FERROPTOSIS INHIBITORS” (priority 2023, published 2026).
Read-outs that look alike come from different tables or passages of the source.

Assays:
HT-1080 = assay: Ferroptosis inhibition, cell viability assay (CellTiter-Glo); format: cell-based, Human; details: for IC50: Homo sapiens; for cellular efficacy/toxicity window: cytotoxic IC50 versus ferroptosis inhibition IC50, 1080 min
Protocol: Cell lines: Human fibrosarcoma cell line HT-1080 and immortalized Mouse Embryonic Fibroblasts (MEF). MEFs were a gift from Daniel Krappmann, HT-1080 were purchased from ATCC and both cell lines were grown in Dulbecco's Modified Eagle's medium (Thermo Fisher Scientific, 41966-029) supplemented with 10% fetal bovine serum (FBS, Thermo Fisher Scientific), 1% Penicillin-Streptomycin (Thermo Fisher Scientific) and 1% nonessential amino acids (MEM NEAA, Thermo Fisher Scientific). Cells were grown at 37° C. and 5% CO2.
HT-1080 were seeded into 384-well plates (CulturPlates, PerkinElmer) with a density of 750 cells per well. After 24 h of growth, cells were treated with 10 or 12-point serial dilutions of compounds in indicated concentrations for 18 h. Viability was detected by using CellTiter-Glo® 2.0 Regent (Promega) according to the manufacturer's instruction and luminescence was read out in an EnVison 2104 Multilabel plate reader (PerkinElmer).

[1] = Cytotoxicity, cell viability assay; format: cell-based, Human; details: human, ht-1080 cells
Protocol: After 24 h of growth, cells were treated with 10 or 12-point serial dilutions of compounds in indicated concentrations for 18 h.

[2] = HT-1080, based on the assays of example 1, read-out: IC50 (Ferroptosis inhibition)
[3] = * = signal quenching at higher concentration, toxicity might be less than indicated, read-out: cytotoxic IC50
[4] = HT-1080, read-out: IC50 (Ferroptosis inhibition)

SMILES	IC50 (HT-1080; [2]) [µM]	cellular efficacy/toxicity window (HT-1080)	CC50 at 18 h [1, 3] [µM]	IC50 (HT-1080; [4]) [µM]	CC50 at 18 h [1] [µM]
Cc1ccc(N(CCCC(=O)O)C2=CC(=O)c3ccccc3C2=O)c(C)c1 [iQFerr42, 4-[(2,4-dimethylphenyl)(1,4-dioxo-1,4-dihydronaphthalen-2-yl)amino]butanoic acid]	0.463	0,47-fold	0.219	–	–
O=C(O)c1ccc(NC2=C(Cl)C(=O)c3ccccc3C2=O)cc1 [iQFerr18, 4-[(3-chloro-1,4-dioxo-1,4-dihydronaphthalen-2-yl)amino]benzoic acid]	0.0941	27-fold	2.55	–	–
CC(=O)Nc1ccc(N(CCCCCC(N)=O)C2=CC(=O)c3ccccc3C2=O)cc1 [iQFerr49, 6-[(1,4-dioxo-1,4-dihydronaphthalen-2-yl)(4-acetamidophenyl)amino] hexanamide]	0.0228	4895-fold	112	–	–
COc1ccc(NC2=C(Cl)C(=O)c3ccccc3C2=O)cc1 [iQFerr12, 2-chloro-3-(4-methoxyanilino)-1,4-naphtoquinone]	0.006	586-fold	3.52	–	–
CC(C)=CCCC1=CC(=O)c2c(O)ccc(O)c2C1=O [iQFerr05, Deoxyshikonin]	–	6-fold	1.62	0.287	–
O=C1C=C(Nc2ccccc2C(=O)O)C(=O)C=C1Nc1ccccc1C(=O)O [QFerr26, 2,2-(3,6-dioxo-1,4-cyclohexadiene-1,4-diyl-diimino)dibenzoic acid]	> 100	–	35.4	–	–
Cc1ccc(N(CCCC(N)=O)C2=CC(=O)c3ccccc3C2=O)c(C)c1 [iQFerr40, 4-[(2,4-dimethylphenyl)(1,4-dioxo-1,4-dihydronaphthalen-2-yl)amino]butanamide]	0.189	1,2-fold	0.23	–	–
O=C1C(O)=C(C(c2ccccc2)c2ccc(F)cc2)C(=O)c2ccccc21 (stereo not shown) [iQFerr34, 2-[(4-fluorophenyl)-phenylmethyl]-3-hydroxy 1,4-naphtoquinone]	–	–	35	71.4	–
COC1=C(OC)C(=O)C(CC=C(C)C)=C(C)C1=O [iQFerr07, Coenzyme Q1]	0.03	333-fold	10	–	–
O=C1C(Cl)=C(Nc2ccc(O)cc2)C(=O)c2ccccc21 [iQFerr11, 2-chloro-3-(4-hydroxy-phenylamino)-1,4-naphtoquinone]	0.006	48-fold	0.293	–	–
O=C(O)CCCNC1=C(Cl)C(=O)c2ccccc2C1=O [iQFerr15, 4-[(3-chloro-1,4-dioxo-1,4-dihydronaphthalen-2-yl)amino]butanoic acid]	1.36	159-fold	215	–	–
CN(C)c1ccc(C(C2=C(O)C(=O)c3ccccc3C2=O)c2ccccc2)cc1 (stereo not shown) [iQFerr33, 2-[(4-dimethylamino-phenyl)phenylmethyl]-3-hydroxy-1,4-naphtoquinone]	7.58	9-fold	71.9	–	–
Cc1ccc(C(C2=C(O)C(=O)c3ccccc3C2=O)c2ccccc2)cc1 (stereo not shown) [iQFerr32, 2-hydroxy-3-[(4-methylphenyl)phenyl-methyl]-1,4-naphtoquinone]	39.8	–	34.2	–	–
O=C(O)c1ccc2c(c1)C(=O)c1ccccc1C2=O [iQFerr08, Anthraquinone-2-carboxyclic acid]	–	–	–	13	> 100
CC(=O)c1cccc(NC2=C(Cl)C(=O)c3ccccc3C2=O)c1 [iQFerr09, 2-(3-acetylanilino)-3-chloro-1,4-naphtoquinone]	0.063	13-fold	0.81	–	–
Cc1ccc(NC2=CC(=O)c3ccccc3C2=O)cc1 [iQFerr22, 2-(4-methylanilino)-1,4-naphtoquinone]	0.0156	354-fold	5.5	–	–

SMILES	IC50 (HT-1080; [2]) [µM]	cellular efficacy/toxicity window (HT-1080)	CC50 at 18 h [1, 3] [µM]	IC50 (HT-1080; [4]) [µM]	CC50 at 18 h [1] [µM]
Cc1ccc(CC2=CC(=O)c3ccccc3C2=O)cc1 [iQFerr30, 2-(4-methylbenzyl)-1,4-naphtoquinone]	0.0384	132-fold	5.06	–	–
CN(C)c1ccc(NC2=CC(=O)c3ccccc3C2=O)cc1 [iQFerr19, 2-[4-(dimethylamino)-anilino]-1,4-naphtoquinone]	0.0322	182-fold	5.85	–	–
CCOc1ccc(NC2=CC(=O)C=CC2=O)cc1 [iQFerr27, 2-(4-ethoxyanilino)-benzo-1,4-quinone]	0.493	4-fold	2.16	–	–
Cc1ccc(NC2=C(Cl)C(=O)c3ccccc3C2=O)cc1 [iQFerr13, 2-chloro-3-(4-methylanilino)-1,4-naphtoquinone]	0.003	126-fold	0.38	–	–
O=C1C=C(Cc2ccc(F)cc2)C(=O)c2ccccc21 [iQFerr28, 2-(4-fluorobenzyl)-1,4-naphtoquinone]	0.0324	45-fold	1.45	–	–
Cc1ccc(NC2=CC(=O)C=CC2=O)c(C)c1 [iQFerr25, 2-(2,4-dimethylanilino)-benzo-1,4-quinone]	0.176	5-fold	0.759	–	–
CC(C)=CC[C@@H](O)C1=CC(=O)c2c(O)ccc(O)c2C1=O [iQFerr03, Shikonin]	–	–	0.269	> 1	–
CCc1ccc(NC2=C(Cl)C(=O)c3ccccc3C2=O)cc1 [iQFerr10, 2-chloro-3-(4-ethylanilino)-1,4-naphtoquinone]	0.008	105-fold	0.844	–	–
CC1=C(Nc2ccc(C)cc2)C(=O)c2ccccc2C1=O [iQFerr45, 2-methyl-3-[(4-methylphenyl)amino]-1,4-dihydronaphthalene-1,4-dione]	0.00156	25634-fold	40	–	–
Cc1ccc(NC2=CC(=O)c3ccccc3C2=O)c(C)c1 [iQFerr37, 2-[(2,4-dimethylphenyl)amino]-1,4-dihydronaphthalene-1,4-dione]	0.0154	3162-fold	48.8	–	–
COc1ccc(CC2=CC(=O)c3ccccc3C2=O)cc1 [iQFerr31, 2-(4-methoxybenzyl)-1,4-naphtoquinone]	1.06	8-fold	8.7	–	–
CC(C)=CC[C@H](O)C1=CC(=O)c2c(O)ccc(O)c2C1=O [iQFerr04, Alkannin]	–	–	0.573	> 1	–
O=C(O)c1ccccc1NC1=CC(=O)c2c(O)cccc2C1=O [iQFerr23]	3.48	5-fold	16.4	–	–
O=C1C(Cl)=C(Nc2ccccc2)C(=O)c2ccccc21 [iQFerr16, 2-anilino-3-chloro-1,4-naphtoquinone]	0.0045	62-fold	0.279	–	–
O=C1c2ccccc2C(=O)c2c1c(-c1ccccc1)nn2-c1ccccc1 [iQFerr24, 1,3-diphenyl-1H-benzo-f-indazole-4,9-dione]	> 100	–	–	–	–
